Reference: ChEMBL document CHEMBL6121016, “Design, Synthesis, and Biological Evaluation of 1,3,4-Thiadiazole Derivatives as Novel Potent Peptide Deformylase Inhibitors for Combating Drug-Resistant Gram-Positive and -Negative Bacteria” (J Med Chem, 2025)
Values after ≈ are worked out from the molar mass of the structure shown. Active and inactive are the calls of the source. The calls are words filed in the database; no cut-off is given here.

How the values were obtained:
Acinetobacter baumannii [1] = assay: Antibacterial activity against Acinetobacter baumannii Bio 120982 after 16 to 18 hrs by broth microdilution method; assay type: functional; conditions: time 16-18 hrs
Acinetobacter baumannii [2] = assay: Induction of intracellular ROS production in Acinetobacter baumannii Bio 53272 cells assessed as membrane potential imbalance incubated for 12 hrs by DCFH-DA probe based ROS assay; assay type: functional, organism-based
Escherichia coli [3] = assay: Antibacterial activity against Escherichia coli ATCC 10663 after 16 to 18 hrs by broth microdilution method; assay type: functional; conditions: time 16-18 hrs
Peptide deformylase = molecular target: T1, Peptide deformylase (Staphylococcus aureus, UniProt P68826); assay: Inhibition of Staphylococcus aureus PDF-Ni assessed as enzyme activity incubated for 30 min by fluorescamine method
T1 sequence (P68826 whole entry): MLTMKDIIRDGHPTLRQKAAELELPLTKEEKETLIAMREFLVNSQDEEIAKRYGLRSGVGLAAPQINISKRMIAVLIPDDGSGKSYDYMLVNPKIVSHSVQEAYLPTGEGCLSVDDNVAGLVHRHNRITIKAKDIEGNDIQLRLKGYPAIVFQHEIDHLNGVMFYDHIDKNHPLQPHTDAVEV

Staphylococcus aureus [4] = assay: Antibacterial activity against methicillin-susceptible Staphylococcus aureus ATCC 13709 after 16 to 18 hrs by broth microdilution method; assay type: functional; conditions: time 16-18 hrs
[5] = Cytotoxicity against human HEK293T cells assessed as cell viability at 3.125 to 100 uM incubated for 24 hrs by MTT assay; assay type: toxicity, cell-based, HEK-293T
Staphylococcus aureus [6] = assay: Induction of morphological changes in methicillin-resistant Staphylococcus aureus RB 3641 assessed as disintegration of cells at 8 times of MIC incubated for 4 hrs by Field emission scanning electron microscopic analysis; assay type: functional, organism-based
[7] = Acute toxicity in normal mouse assessed as death at 200 mg/kg, iv observed for 14 days; assay type: organism-based; conditions: in vivo, 336 h, time 14 day
[8] = Methemoglobin toxicity in human blood at 500 uM incubated for 6 hrs by MetHb content assay; assay type: tissue-based
Escherichia coli [9] = assay: Antibacterial activity against Escherichia coli ATCC 10668 after 16 to 18 hrs by broth microdilution method; assay type: functional; conditions: time 16-18 hrs
Escherichia coli [10] = assay: Potency index, ratio of LBM415 MIC to test compound MIC for antibacterial activity against Escherichia coli after 16 to 18 hrs by broth microdilution method; assay type: functional; conditions: time 16-18 hrs
Staphylococcus aureus [11] = assay: Antibacterial activity against methicillin-resistant Staphylococcus aureus ATCC 43300 after 16 to 18 hrs by broth microdilution method; assay type: functional; conditions: time 16-18 hrs
Acinetobacter baumannii [12] = assay: In vivo anti-bacterial activity against drug-resistant Acinetobacter baumannii infected MK mouse; assay type: functional
Staphylococcus aureus [13] = assay: Antibacterial activity against methicillin-susceptible Staphylococcus aureus ATCC 25923 after 16 to 18 hrs by broth microdilution method; assay type: functional; conditions: time 16-18 hrs
Klebsiella pneumoniae [14] = assay: Antibacterial activity against Klebsiella pneumoniae CICC 21092 after 16 to 18 hrs by broth microdilution method; assay type: functional; conditions: time 16-18 hrs
Acinetobacter baumannii [15] = assay: Bactericidal activity against drug-resistant Acinetobacter baumannii assessed as bacteriostatic efficiency at 0.5 to 2 microg/mL by time killing analysis; assay type: functional, organism-based; conditions: dose 0.5-2 µg/ml, time 0-25 hrs
[16] = Acute toxicity in normal mouse assessed as death at 400 mg/kg, iv observed for 14 days; assay type: organism-based; conditions: in vivo, 336 h, time 14 day
Acinetobacter baumannii [17] = assay: Antibacterial activity against Acinetobacter baumannii Bio 53272 after 16 to 18 hrs by broth microdilution method; assay type: functional; conditions: time 16-18 hrs
Cell membrane [18] = assay: Induction of cell membrane disruption in Acinetobacter baumannii assessed as outer membrane integrity by NucGreen/EthD-III costain fluorescent assay; assay type: subcellular
Acinetobacter baumannii [19] = assay: Antibacterial activity against Acinetobacter baumannii Bio 34235 after 16 to 18 hrs by broth microdilution method; assay type: functional; conditions: time 16-18 hrs
Acinetobacter baumannii [20] = assay: Bactericidal activity against drug-resistant Acinetobacter baumannii assessed as bacteriostatic efficiency measured after 0 to 24 hrs by time killing analysis; assay type: functional, organism-based; conditions: dose 0.5-2 µg/ml, time 0-24 hrs
[21] = Acute toxicity in KM mouse infected with drug-resistant Acinetobacter baumannii assessed as survival rate at 40 mg/kg; assay type: organism-based; conditions: in vivo
Acinetobacter baumannii [22] = assay: Anti-biofilm activity against Acinetobacter baumannii at 0.5 to 64 microg/ml incubated for 24 hrs by microplate reader analysis; assay type: functional; conditions: dose 0.5-64 µg/ml, at 0.5 to 64 µg/mL
[23] = Acute toxicity in normal mouse assessed as aberrant behaviors at 400 mg/kg, iv observed for 14 days; assay type: organism-based; conditions: in vivo, 336 h, time 14 day
Acinetobacter baumannii [24] = assay: Anti-biofilm activity against of Acinetobacter baumannii assessed as growth inhibition at 2 microg/ml incubated for 24 hrs by microplate reader analysis relative to control; assay type: functional
Klebsiella pneumoniae [25] = assay: Antibacterial activity against Klebsiella pneumoniae CICC 20093 after 16 to 18 hrs by broth microdilution method; assay type: functional; conditions: time 16-18 hrs
Acinetobacter baumannii [26] = assay: Antibacterial activity against Acinetobacter baumannii Bio 24253 after 16 to 18 hrs by broth microdilution method; assay type: functional; conditions: time 16-18 hrs
Staphylococcus aureus [27] = assay: Antibacterial activity against methicillin-resistant Staphylococcus aureus ATCC 33591 after 16 to 18 hrs by broth microdilution method; assay type: functional; conditions: time 16-18 hrs
Cell membrane [28] = assay: Induction of cell membrane disruption in methicillin-resistant Staphylococcus aureus assessed as […] integrity by NucGreen/EthD-III costain fluorescent assay; assay type: subcellular
Acinetobacter baumannii [29] = assay: Antibacterial activity against Acinetobacter baumannii Bio 69680 after 16 to 18 hrs by broth microdilution method; assay type: functional; conditions: time 16-18 hrs
Acinetobacter baumannii [30] = assay: Induction of morphological changes in Acinetobacter baumannii Bio 53272 assessed as increased wrinkles at 8 times of MIC incubated for 4 hrs by Field emission scanning electron microscopic analysis; assay type: functional, organism-based
[31] = Acute toxicity in KM mouse infected with drug-resistant Acinetobacter baumannii assessed as pathological changes in lungs at 40 mg/kg by HE staining based analysis; assay type: organism-based; conditions: in vivo
Acinetobacter baumannii [32] = assay: Antibacterial activity against Acinetobacter baumannii Bio 53250 after 16 to 18 hrs by broth microdilution method; assay type: functional; conditions: time 16-18 hrs
Escherichia coli [33] = assay: Antibacterial activity against Escherichia coli ATCC 25922 after 16 to 18 hrs by broth microdilution method; assay type: functional; conditions: time 16-18 hrs
Staphylococcus aureus [34] = assay: Antibacterial activity against methicillin-resistant Staphylococcus aureus Bio-090770 after 16 to 18 hrs by broth microdilution method; assay type: functional; conditions: time 16-18 hrs
Acinetobacter baumannii [35] = assay: Potency index, ratio of ciprofloxacin MIC to test compound MIC for antibacterial activity against drug-resistant Acinetobacter baumannii after 16 to 18 hrs by broth microdilution method; assay type: functional; conditions: time 16-18 hrs
Staphylococcus aureus [36] = assay: Anti-biofilm activity against mature methicillin-resistant Staphylococcus aureus at 8 microg/ml incubated for 24 hrs by microplate reader analysis; assay type: functional; conditions: dose 8 µg/ml
[37] = Cytotoxicity against human HeLa cells assessed as cell viability at 3.125 to 100 uM incubated for 24 hrs by MTT assay; assay type: toxicity, cell-based
[38] = Acute toxicity in KM mouse infected with drug-resistant Acinetobacter baumannii assessed as pathological changes in kidney at 40 mg/kg by HE staining based analysis; assay type: organism-based; conditions: in vivo
Escherichia coli [39] = assay: Antibacterial activity against Escherichia coli ATCC 10661 after 16 to 18 hrs by broth microdilution method; assay type: functional; conditions: time 16-18 hrs
[40] = Aqueous solubility of compound at 0.9% aqueous NaCl solution incubated for 2 hrs by UV spectrophotometry analysis; assay type: physicochemical
Acinetobacter baumannii [41] = assay: Antibacterial activity against drug-resistant Acinetobacter baumannii Bio 53272 after 16 to 18 hrs by broth microdilution method; assay type: functional; conditions: time 16-18 hrs
Staphylococcus aureus [42] = assay: Antibacterial activity against methicillin-susceptible Staphylococcus aureus ATCC 29213 after 16 to 18 hrs by broth microdilution method; assay type: functional; conditions: time 16-18 hrs

Structure (SMILES): CCCC[C@H](CN(O)C=O)C(=O)N1CCC[C@H]1c1nnc(-c2cccs2)s1
- MIC (Acinetobacter baumannii [1]): 4 µg/mL (≈ 9.79 µM)
- Activity (Acinetobacter baumannii [2]): Active
- MIC (Escherichia coli [3]): 8 µg/mL (≈ 19.6 µM)
- IC50 (Peptide deformylase): 2.5 nM
- MIC (Staphylococcus aureus [4]): 0.25 µg/mL (≈ 0.612 µM)
- IC50 at 24 h [5]: > 100 µM
- Activity (Staphylococcus aureus [6]): Active
- Activity [7]: Non-toxic
- Activity [8]: Toxic
- MIC (Escherichia coli [9]): 8 µg/mL (≈ 19.6 µM)
- Ratio (Escherichia coli [10]): >16
- MIC (Staphylococcus aureus [11]): 0.125 µg/mL (≈ 0.306 µM)
- ED50 (Acinetobacter baumannii [12]): 30.4 mg/kg
- MIC (Staphylococcus aureus [13]): 0.25 µg/mL (≈ 0.612 µM)
- MIC (Klebsiella pneumoniae [14]): 16 µg/mL (≈ 39.2 µM)
- Activity (Acinetobacter baumannii [15]): Dose-dependent-effect
- Activity [16]: Non-toxic
- MIC (Acinetobacter baumannii [17]): 0.5 µg/mL (≈ 1.22 µM)
- Activity (Cell membrane [18]): Active
- MIC (Acinetobacter baumannii [19]): 4 µg/mL (≈ 9.79 µM)
- Activity (Acinetobacter baumannii [20]): Dose-dependent-effect
- Activity [21]: Non-toxic
- Activity (Acinetobacter baumannii [22]): 7.1%
- Activity [23]: Non-toxic
- inhibition at 2 µg/mL (Acinetobacter baumannii [24]): 50%
- MIC (Klebsiella pneumoniae [25]): 16 µg/mL (≈ 39.2 µM)
- MIC (Acinetobacter baumannii [26]): 4 µg/mL (≈ 9.79 µM)
- MIC (Staphylococcus aureus [27]): 0.125 µg/mL (≈ 0.306 µM)
- Activity (Cell membrane [28]): Active
- MIC (Acinetobacter baumannii [29]): 4 µg/mL (≈ 9.79 µM)
- Activity (Acinetobacter baumannii [30]): Active
- Activity [31]: Non-toxic
- MIC (Acinetobacter baumannii [32]): 4 µg/mL (≈ 9.79 µM)
- MIC (Escherichia coli [33]): 2 µg/mL (≈ 4.9 µM)
- MIC (Staphylococcus aureus [34]): 0.25 µg/mL (≈ 0.612 µM)
- Ratio (Acinetobacter baumannii [35]): >64
- Activity (Staphylococcus aureus [36]): 60%
- IC50 at 24 h [37]: > 100 µM
- Activity [38]: Non-toxic
- MIC (Escherichia coli [39]): 4 µg/mL (≈ 9.79 µM)
- solubility at 2 h [40]: 2600 µg/mL (≈ 6360 µM)
- MIC (Acinetobacter baumannii [41]): 0.5 µg/mL (≈ 1.22 µM)
- MIC (Staphylococcus aureus [42]): 0.25 µg/mL (≈ 0.612 µM)
